Source: BindingDB's records for doi:10.1002/ps.1855 (2010)

Target: Cytochrome b6-f complex subunit 4 (Spinacia oleracea, UniProt P00166)
Assay: Inhibition of photosynthetic electron transport protein complex in Spinacia oleracea (spinach) leaf thylakoid membranes measured at 30 seconds intervals for 10 min

Sequence of Cytochrome b6-f complex subunit 4 (P00166 whole entry, one chain of several): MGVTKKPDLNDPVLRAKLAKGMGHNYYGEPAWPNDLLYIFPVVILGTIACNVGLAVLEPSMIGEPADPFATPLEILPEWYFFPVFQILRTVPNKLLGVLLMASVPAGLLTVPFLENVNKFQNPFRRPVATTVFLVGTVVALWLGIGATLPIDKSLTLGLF

SMILES | IC50
O=C1O/C(=C\c2cccc(O)c2)C=C1Cc1ccccc1 | > 200 µM
O=C1O/C(=C\c2ccc([N+](=O)[O-])cc2)C=C1Cc1ccccc1 | 1.7 µM
O=C1O/C(=C\c2ccc(Cl)cc2)C=C1Cc1ccccc1 | > 200 µM
COc1ccc(OC)c(/C=C2/C=C(Cc3ccccc3)C(=O)O2)c1 | 19.4 µM
O=C1O/C(=C\c2ccccc2O)C=C1Cc1ccccc1 | > 200 µM
N#Cc1cccc(/C=C2/C=C(Cc3ccccc3)C(=O)O2)c1 | > 200 µM
O=C1O/C(=C\c2cccc(C(F)(F)F)c2)C=C1Cc1ccccc1 | 10 µM
O=C1O/C(=C\c2ccc(Br)cc2)C=C1Cc1ccccc1 | > 200 µM
COc1ccc(/C=C2/C=C(Cc3ccccc3)C(=O)O2)cc1 | 53.7 µM
O=C1O/C(=C\c2ccc(O)cc2)C=C1Cc1ccccc1 | > 200 µM
Cc1ccc(/C=C2/C=C(Cc3ccccc3)C(=O)O2)cc1 | > 200 µM
N#Cc1ccc(/C=C2/C=C(Cc3ccccc3)C(=O)O2)cc1 | > 200 µM
O=C1O/C(=C\c2ccccc2F)C=C1Cc1ccccc1 | 10.1 µM
COc1ccc(/C=C2/C=C(Cc3ccccc3)C(=O)O2)cc1O | > 200 µM
O=C1O/C(=C\c2ccc(-c3ccccc3)cc2)C=C1Cc1ccccc1 | > 200 µM
O=C1O/C(=C\c2ccccc2C(F)(F)F)C=C1Cc1ccccc1 | 11.8 µM
Cc1ccccc1/C=C1/C=C(Cc2ccccc2)C(=O)O1 | 23.5 µM
O=C1O/C(=C\c2ccccc2)C=C1Cc1ccccc1 | 19.7 µM
O=C1O/C(=C\c2ccc3c(c2)OCO3)C=C1Cc1ccccc1 | > 200 µM
O=C1O/C(=C\c2ccc(C(F)(F)F)cc2)C=C1Cc1ccccc1 | 8.3 µM

Target: not listed separately
Assay: Inhibition of photosynthetic electron transport protein complex in Spinacia oleracea (spinach) leaf thylakoid membranes measured at 30 seconds intervals for 10 min

SMILES | IC50
CN(C)c1cccc(/C=C2/C=C(Cc3ccccc3)C(=O)O2)c1 | 13.3 µM
O=C1O/C(=C\c2cccc(Cl)c2)C=C1Cc1ccccc1 | 44.7 µM
CN(C)c1ccc(/C=C2/C=C(Cc3ccccc3)C(=O)O2)c(Cl)c1 | > 200 µM
O=C1O/C(=C\c2ccccc2Cl)C=C1Cc1ccccc1 | 19.1 µM
O=C1O/C(=C\c2ccc(F)cc2)C=C1Cc1ccccc1 | 21.9 µM
O=C1O/C(=C\c2cccc(F)c2)C=C1Cc1ccccc1 | 20.5 µM
CCc1ccc(/C=C2/C=C(Cc3ccccc3)C(=O)O2)cc1 | 9.1 µM
COc1cc(OC)c(/C=C2\C=C(Cc3ccccc3)C(=O)O2)c(OC)c1 | 12.7 µM
Cc1cccc(/C=C2/C=C(Cc3ccccc3)C(=O)O2)c1 | 73.8 µM
CN(C)c1ccc(/C=C2/C=C(Cc3ccccc3)C(=O)O2)cc1 | > 200 µM
O=C1O/C(=C\c2cccc([N+](=O)[O-])c2)C=C1Cc1ccccc1 | 23.1 µM
O=C1O/C(=C\c2c(F)c(F)c(F)c(F)c2F)C=C1Cc1ccccc1 | 75.2 µM
O=C1O/C(=C\c2ccccc2Br)C=C1Cc1ccccc1 | 25.8 µM
O=C1O/C(=C\c2cccc(Br)c2)C=C1Cc1ccccc1 | 170 µM
